In the data set the test system is CCRIS mutagenicity, Ames/micronucleus/aberration tests. Nature of the data set: CCRIS mutagenicity studies.

Calls of active or inactive are those of the source. How the calls were made is not given here.

For the molecule `Cc1cnc[nH]1`, the mutagenic call is “inactive; positive in trial 1; negative in trial 2; percentage of pces declined with incre” (End Point: In vivo micronucleus, Test System: Bone marrow polychromatic erythrocytes, Species: Mouse, Strain/Sex: B6C3F1/Male, Route: Intraperitoneal); “inactive; negative (no increase in micronucleus frequencies at all levels; percentage of” (End Point: In vivo micronucleus, Test System: Polychromatic erythrocytes and Normochromatic erythrocytes, Species: Mouse, Strain/Sex: B6C3F1/Female, Route: Oral); “inactive; negative (no increase in micronucleus frequencies at all levels; percentage of” (End Point: In vivo micronucleus, Test System: Polychromatic erythrocytes and Normochromatic erythrocytes, Species: Mouse, Strain/Sex: B6C3F1/Male, Route: Oral); “inactive; negative” (Test System: AMES SALMONELLA TYPHIMURIUM, Strain/Indicator: TA98, Metabolic Activation: NONE, Method: PREINCUBATION); “inactive; negative” (Test System: AMES SALMONELLA TYPHIMURIUM, Strain/Indicator: TA98, Metabolic Activation: RAT LIVER S-9, PHENOBARBITAL AND BETA-NAPHTHOFLAVONE, Method: PREINCUBATION); “inactive; negative” (Test System: AMES SALMONELLA TYPHIMURIUM, Strain/Indicator: TA100, Metabolic Activation: NONE, Method: PREINCUBATION). Besides, the mutagenic call by setting is: (Test System: AMES SALMONELLA TYPHIMURIUM, Strain/Indicator: TA100, Metabolic Activation: RAT LIVER S-9, PHENOBARBITAL AND BETA-NAPHTHOFLAVONE, Method: PREINCUBATION) “inactive; negative”; (Test System: AMES SALMONELLA TYPHIMURIUM, Strain/Indicator: TA102, Metabolic Activation: NONE, Method: PREINCUBATION) “inactive; negative”; (Test System: AMES SALMONELLA TYPHIMURIUM, Strain/Indicator: TA102, Metabolic Activation: RAT LIVER S-9, PHENOBARBITAL AND BETA-NAPHTHOFLAVONE, Method: PREINCUBATION) “inactive; negative”; (Test System: AMES SALMONELLA TYPHIMURIUM, Strain/Indicator: TA104, Metabolic Activation: NONE, Method: PREINCUBATION) “inactive; negative”; (Test System: AMES SALMONELLA TYPHIMURIUM, Strain/Indicator: TA104, Metabolic Activation: RAT LIVER S-9, PHENOBARBITAL AND BETA-NAPHTHOFLAVONE, Method: PREINCUBATION) “inactive; negative”; (Test System: AMES SALMONELLA TYPHIMURIUM, Strain/Indicator: TA1535, Metabolic Activation: NONE, Method: PREINCUBATION) “inactive; negative”. The mutagenic call reads like this: (Test System: AMES SALMONELLA TYPHIMURIUM, Strain/Indicator: TA1535, Metabolic Activation: RAT LIVER S-9, PHENOBARBITAL AND BETA-NAPHTHOFLAVONE, Method: PREINCUBATION) “inactive; negative”; (Test System: AMES SALMONELLA TYPHIMURIUM, Strain/Indicator: TA1537, Metabolic Activation: NONE, Method: PREINCUBATION) “inactive; negative”; (Test System: AMES SALMONELLA TYPHIMURIUM, Strain/Indicator: TA1537, Metabolic Activation: RAT LIVER S-9, PHENOBARBITAL AND BETA-NAPHTHOFLAVONE, Method: PREINCUBATION) “inactive; negative”; (Test System: Ames Salmonella typhimurium, Strain/Indicator: TA97, Metabolic Activation: Hamster, liver, S-9, Aroclor 1254, Method: Preincubation) “inactive; negative”; (Test System: Ames Salmonella typhimurium, Strain/Indicator: TA97, Metabolic Activation: None, Method: Preincubation) “inactive; negative”; (Test System: Ames Salmonella typhimurium, Strain/Indicator: TA97, Metabolic Activation: Rat, liver, S-9, Aroclor 1254, Method: Preincubation) “inactive; negative”. The mutagenic call by setting is: (Test System: Ames Salmonella typhimurium, Strain/Indicator: TA98, Metabolic Activation: Hamster, liver, S-9, Aroclor 1254, Method: Preincubation) “inactive; negative”; (Test System: Ames Salmonella typhimurium, Strain/Indicator: TA98, Metabolic Activation: None, Method: Preincubation) “inactive; negative”; (Test System: Ames Salmonella typhimurium, Strain/Indicator: TA98, Metabolic Activation: Rat, liver, S-9, Aroclor 1254, Method: Preincubation) “inactive; negative”; (Test System: Ames Salmonella typhimurium, Strain/Indicator: TA100, Metabolic Activation: Hamster, liver, S-9, Aroclor 1254, Method: Preincubation) “inactive; negative”; (Test System: Ames Salmonella typhimurium, Strain/Indicator: TA100, Metabolic Activation: None, Method: Preincubation) “inactive; negative”; (Test System: Ames Salmonella typhimurium, Strain/Indicator: TA100, Metabolic Activation: Rat, liver, S-9, Aroclor 1254, Method: Preincubation) “inactive; negative”. For the same molecule, the mutagenic call is “inactive; negative” (Test System: Ames Salmonella typhimurium, Strain/Indicator: TA1535, Metabolic Activation: Hamster, liver, S-9, Aroclor 1254, Method: Preincubation); “inactive; negative” (Test System: Ames Salmonella typhimurium, Strain/Indicator: TA1535, Metabolic Activation: None, Method: Preincubation); “inactive; negative” (Test System: Ames Salmonella typhimurium, Strain/Indicator: TA1535, Metabolic Activation: Rat, liver, S-9, Aroclor 1254, Method: Preincubation); “inactive; negative” (Test System: E.COLI, Strain/Indicator: WP2UVRA/PKM101, Metabolic Activation: NONE, Method: PREINCUBATION); “inactive; negative” (Test System: E.COLI, Strain/Indicator: WP2UVRA/PKM101, Metabolic Activation: RAT LIVER S-9, PHENOBARBITAL AND BETA-NAPHTHOFLAVONE, Method: PREINCUBATION); “inactive; negative” (Test System: E.COLI, Strain/Indicator: WP2UVRA, Metabolic Activation: NONE, Method: PREINCUBATION). Besides, the mutagenic call (Test System: E.COLI, Strain/Indicator: WP2UVRA, Metabolic Activation: RAT LIVER S-9, PHENOBARBITAL AND BETA-NAPHTHOFLAVONE, Method: PREINCUBATION) is “inactive; negative”.
As for `C=CCNc1ccccc1.C=CCNc1ccccc1.C=CCNc1ccccc1.[Cl-].[Cl-].[Rh].[Rh]`, the mutagenic call (Test System: AMES SALMONELLA TYPHIMURIUM, Strain/Indicator: TA92, Metabolic Activation: NONE, Method: STANDARD PLATE) was “inactive; negative”.
Regarding `COc1cccc2c1C(=O)c1c(O)c3c(c(O)c1C2=O)C[C@@](O)(C(C)=O)C[C@@H]3O[C@H]1C[C@H](NCc2ccccc2)[C@H](O)[C@H](C)O1`, the mutagenic call (Test System: UDS RAT HEPATOCYTES, Strain/Indicator: THY INCORP, Metabolic Activation: NONE, Method: AUTOMATIC COLONY COUNTER) was “active; positive”.

Values taken from PubChem BioAssay AID1259407 (Chemical Carcinogenesis Research Information System (CCRIS), 2018).
